Literature values in US11857520B2, “Therapeutic composition of intranasal lidocaine” (Nortic Holdings Inc., priority 2018, dated 2024).

Tests used:
[1] = generally recognized
skin = conditions: HSDB database
[2] = system: human retinal pigment epithelial cell; conditions: 0.225 mg/ml in triamcinolone acetonide (TA) following intravitreal injection, at 2 hours

| Structure (SMILES) | Maximum dose [1] [mg/kg] | duration of action [1] [h] | level irritating to the skin (skin) [%] | effect on human retinal pigment epithelial cells [2] |
| --- | --- | --- | --- | --- |
| COC(=O)[C@H]1[C@@H](OC(=O)c2ccccc2)C[C@@H]2CC[C@H]1N2C [cocaine] | 3 |  |  |  |
| CCCCNc1ccc(C(=O)OCCN(C)C)cc1 [tetracaine] | 3 | 1.5 to 6 |  |  |
| OCc1ccccc1 [benzyl alcohol] |  |  | ≥ 3 | caused ultrastructural damage and impaired human retinal pigment epithelial cell function |
| CCCNC(C)C(=O)Nc1ccccc1C (centres unmarked) [prilocaine] | 8 |  |  |  |
| CCCN1CCCC[C@H]1C(=O)Nc1c(C)cccc1C [ropivacaine] | 3 |  |  |  |
| CCN(CC)CC(=O)Nc1c(C)cccc1C [lidocaine] | 4.5 | 0.75 to 1.5 |  |  |
| CCN(CC)CCOC(=O)c1ccc(N)cc1 [procaine] | 12 |  |  |  |
| CCN(CC)CCOC(=O)c1ccc(N)cc1Cl [chloroprocaine] | 12 |  |  |  |
| CCCCN1CCCCC1C(=O)Nc1c(C)cccc1C (centres unmarked) [bupivacaine] | 3 |  |  |  |
| Cc1cccc(C)c1NC(=O)C1CCCCN1C (centres unmarked) [mepivacaine] | 4.5 | 1 to 2 |  |  |
